Results: US20250263436A1, “BROAD-SPECTRUM ANTIVIRAL DRUG FOR ENTEROVIRUS, AND APPLICATION” (WUHAN INSTITUTE OF VIROLOGY, CHINESE ACADEMY OF SCIENCES, priority 2020, published 2025)
pIC50: −log10 of the molar value. Values joined by “and” are separate entries in the source; they are usually repeats but may differ in a detail not shown here. Identical values can stand only once.

Legend:
EV71 = assay: Inhibition of EV71 in 293T cells (viral RNA, qRT-PCR); type: cell-based, enterovirus 71 (EV71); conditions: anti-EV71 in 293T cells
Protocol: (1) Different cells were plated in a 24-well plate.
(2) When the cells grew to a confluence of 70%-80%, the DMEM medium containing 10% serum was replaced with a DMEM medium containing 2% serum (the DMEM medium containing 2% serum was added in each well at an amount of 0.5 mL), and 5 μL of EV71 virus of 1×10^6 PFU/mL was added to each well.
(3) After 1 h, different polypeptides (RQ or control TAT) with final concentrations of 0.3125 μM, 0.625 μM, 1.25 μM, 2.5 μM, and 5 μM were added respectively. The group without polypeptide added was used as a control.
(4) The samples were collected 24 h after the infection of EV71 virus, and RNA was extracted with the total RNA extraction kit.
(5) The supernatant was discarded, then 350 μL of TRK lysate was added to each well, and the plate was put on a shaker for 5 min.
(6) 350 μL of 70% ethanol (DEPC) was added to each well, and then the plate was put on a shaker for 5 min.
(7) The solution in each well was transferred to a RNA extraction column for 1 min of centrifugation at 12000 g.
(8) The solution obtained in the recovery tube was reloaded on the column again for 1 min of centrifugation at 12000 g.
(9) RNA washing buffer 1 was added in the column for 30 s of centrifugation at 12000 g. […]
(14) 2 μL of RNA sample was subjected to a fluorescence quantitative experiment using the one step qRT-PCR kit.

[1] = Toxicity assay in RD cells (CCK-8); type: cell-based; conditions: human, RD cells, 24 h
Protocol: (§1) (1) Different cells were plated in a 96-well plate at 100 μL per well.
(§2) (2) When the cells grew to a confluence of 70%-80%, the DMEM medium containing 10% serum was replaced with a DMEM medium containing 2% serum, and a certain concentration gradient of polypeptide RQ was added, so that the final concentrations of the polypeptide in the wells were 0.073242 μM, 0.146484 μM, 0.292969 μM, 0.585938 μM, 1.171875 μM, 2.34375 μM, 4.6875 μM, 9.375 μM, 18.75 μM, 37.5 μM, 75 μM, 150 μM, and 300 μM, respectively.
(§3) (3) The samples were collected 24 h after the addition of the polypeptide, and then 10 μL of live cell detection reagent CCK-8 was added to each well and mixed well.
(§4) (4) The plate was placed at 37° C. for 2 h.
(§5) (5) The absorbance value at OD450 was detected by a microplate reader.
(§6) (1) RD cells were plated in a 96-well plate at 100 μL per well.
(§7) (2) When the cells grew to a confluence of 70%-80%, the DMEM medium containing 10% serum was replaced with a DMEM medium containing 2% serum, and B-RQ was added so that the final concentrations in the wells were 0.46 μM, 2.34 μM, 4.68 μM, 9.37 μM, 18.75 μM, 37.5 μM, 75 μM, and 150 μM.

RD cells = assay: Toxicity assay in RD cells (CCK-8); type: cell-based; conditions: 24 h
Protocol: as §1, §2, §3, §4, §5, §6, §7

CC[C@H](C)[C@H](NC(=O)[C@H](C)NC(=O)[C@H](CO)NC(=O)[C@H](CCCNC(=N)N)NC(=O)[C@H](CC(N)=O)NC(=O)[C@H](CC(N)=O)NC(=O)[C@H](Cc1ccc(O)cc1)NC(=O)[C@H](CCC(=O)O)NC(=O)[C@H](CCCNC(=N)N)NC(=O)CNC(=O)[C@H](CO)NC(=O)CNC(=O)[C@H](CCCNC(=N)N)NC(=O)[C@H](CCCNC(=N)N)NC(=O)[C@H](CCCNC(=N)N)NC(=O)[C@H](CCC(N)=O)NC(=O)[C@H](CCCNC(=N)N)NC(=O)[C@H](CCCNC(=N)N)NC(=O)[C@H](CCCCN)NC(=O)[C@H](CCCCN)NC(=O)[C@H](CCCNC(=N)N)NC(=O)CNC(=O)[C@@H](N)Cc1ccc(O)cc1)C(=O)NCC(=O)N[C@@H](CC(N)=O)C(=O)N[C@H](C(=O)N[C@H](C(=O)N[C@@H](CCC(=O)O)C(=O)N[C@@H](C)C(=O)N[C@@H](CC(C)C)C(=O)N[C@@H](Cc1ccccc1)C(=O)N[C@@H](CCC(N)=O)C(=O)O)[C@@H](C)CC)[C@@H](C)O [RQ]
pIC50 (EV71): 5.52
viability at 24 h, 0.073242 µM ([1]; RQ 0.073242 μM, read-out: Viability of RD cell (%)): 99.8%
viability at 24 h, 0.146484 µM ([1]; RQ 0.146484 μM, read-out: Viability of RD cell (%)): 99.2%
viability at 24 h, 0.292969 µM ([1]; RQ 0.292969 μM, read-out: Viability of RD cell (%)): 101%
viability at 24 h, 0.585938 µM ([1]; RQ 0.585938 μM, read-out: Viability of RD cell (%)): 98.9%
viability at 24 h, 1.17188 µM ([1]; RQ 1.171875 μM, read-out: Viability of RD cell (%)): 99.6%
viability at 24 h, 2.34375 µM ([1]; RQ 2.34375 μM, read-out: Viability of RD cell (%)): 98.8%
viability at 24 h, 4.6875 µM ([1]; RQ 4.6875 μM, read-out: Viability of RD cell (%)): 98.3%
viability at 24 h, 9.375 µM ([1]; RQ 9.375 μM, read-out: Viability of RD cell (%)): 98.4%
viability at 24 h, 18.75 µM ([1]; RQ 18.75 μM, read-out: Viability of RD cell (%)): 101%
viability at 24 h, 37.5 µM ([1]; RQ 37.5 μM, read-out: Viability of RD cell (%)): 101%
viability at 24 h, 75 µM ([1]; RQ 75 μM, read-out: Viability of RD cell (%)): 102%
viability at 24 h, 150 µM ([1]; RQ 150 μM, read-out: Viability of RD cell (%)): 8.73%
CC50 at 24 h ([1]; CCK-8): > 150 µM
Viability of RD cell (%) (RD cells; RQ 0.073242 μM): 100.3321% and 99.8893%
Viability of RD cell (%) (RD cells; RQ 0.146484 μM): 102.3247% and 99.94%
Viability of RD cell (%) (RD cells; RQ 0.292969 μM): 100.2214% and 99.17%
Viability of RD cell (%) (RD cells; RQ 0.585938 μM): 103.5978% and 102.7122%
Viability of RD cell (%) (RD cells; RQ 1.171875 μM): 99% and 99.23%
Viability of RD cell (%) (RD cells; RQ 2.34375 μM): 98.51%
Viability of RD cell (%) (RD cells; RQ 4.6875 μM): 99.45% and 100.8856%
Viability of RD cell (%) (RD cells; RQ 9.375 μM): 100.7196% and 102.6568%
Viability of RD cell (%) (RD cells; RQ 18.75 μM): 103.4317% and 102.4354%
Viability of RD cell (%) (RD cells; RQ 37.5 μM): 103.9852% and 103.5424%
Viability of RD cell (%) (RD cells; RQ 75 μM): 103.5978% and 102.9889%
Viability of RD cell (%) (RD cells; RQ 150 μM): 8.782% and 8.007%
